From ChEMBL document CHEMBL1201862, “PubChem BioAssay data set” (2004)
Calls of active or inactive are those of the source.

Assays:
Cytochrome P450 2C19 = Cytochrome P450 2C19 (Homo sapiens, UniProt P33261); experiment: Cytochrome panel assay with activity outcomes. Panel member name: p450-cyp2c19 Compounds with AC50 equal or less than 10 uM are considered active; type: functional; details: read-out: AC50
Cytochrome P450 3A4 = Cytochrome P450 3A4 (Homo sapiens, UniProt P08684);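 further: CYP3A4 tested as one member of a cytochrome P450 panel screen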
Sequence of Cytochrome P450 3A4 (P08684 whole entry): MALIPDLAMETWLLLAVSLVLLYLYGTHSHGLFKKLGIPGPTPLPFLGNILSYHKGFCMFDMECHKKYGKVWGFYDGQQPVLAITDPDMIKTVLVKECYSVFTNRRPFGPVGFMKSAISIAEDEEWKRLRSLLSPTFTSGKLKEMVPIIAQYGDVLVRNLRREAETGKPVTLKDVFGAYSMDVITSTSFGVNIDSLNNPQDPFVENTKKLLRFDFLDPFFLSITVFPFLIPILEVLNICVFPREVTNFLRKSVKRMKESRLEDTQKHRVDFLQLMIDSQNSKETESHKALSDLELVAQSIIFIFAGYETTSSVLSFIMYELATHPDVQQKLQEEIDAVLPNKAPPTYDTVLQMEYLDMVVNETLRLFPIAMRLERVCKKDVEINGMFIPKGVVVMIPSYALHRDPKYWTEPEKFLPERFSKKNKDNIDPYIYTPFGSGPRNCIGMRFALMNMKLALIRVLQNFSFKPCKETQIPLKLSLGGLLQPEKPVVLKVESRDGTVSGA

Cytochrome P450 2C9 = Cytochrome P450 2C9 (Homo sapiens, UniProt P11712)
Sequence of Cytochrome P450 2C9 (P11712 whole entry): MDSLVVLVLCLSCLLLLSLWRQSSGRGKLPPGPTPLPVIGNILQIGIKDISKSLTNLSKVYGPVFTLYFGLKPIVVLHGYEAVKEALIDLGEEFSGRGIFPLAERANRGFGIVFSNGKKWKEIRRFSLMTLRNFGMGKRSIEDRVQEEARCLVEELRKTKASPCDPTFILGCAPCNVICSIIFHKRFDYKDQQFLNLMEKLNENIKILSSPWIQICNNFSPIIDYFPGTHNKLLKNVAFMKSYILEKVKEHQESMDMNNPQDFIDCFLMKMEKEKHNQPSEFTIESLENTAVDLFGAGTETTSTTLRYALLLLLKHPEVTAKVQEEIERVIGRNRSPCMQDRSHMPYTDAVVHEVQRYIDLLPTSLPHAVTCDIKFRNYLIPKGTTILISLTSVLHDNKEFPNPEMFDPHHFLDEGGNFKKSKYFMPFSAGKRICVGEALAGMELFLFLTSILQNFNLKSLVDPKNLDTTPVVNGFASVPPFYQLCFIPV

[1] = molecular target: T1, Corticotropin-releasing factor receptor 2/Corticotropin-releasing factor-binding protein (Homo sapiens, UniProt P24387+Q13324); experiment: activators of CRF receptor 2 with binding protein – uHTS hits, confirmation (AID 602473); type: functional; details: read-out: EC50_Mean
T1 sequence (Q13324 whole entry): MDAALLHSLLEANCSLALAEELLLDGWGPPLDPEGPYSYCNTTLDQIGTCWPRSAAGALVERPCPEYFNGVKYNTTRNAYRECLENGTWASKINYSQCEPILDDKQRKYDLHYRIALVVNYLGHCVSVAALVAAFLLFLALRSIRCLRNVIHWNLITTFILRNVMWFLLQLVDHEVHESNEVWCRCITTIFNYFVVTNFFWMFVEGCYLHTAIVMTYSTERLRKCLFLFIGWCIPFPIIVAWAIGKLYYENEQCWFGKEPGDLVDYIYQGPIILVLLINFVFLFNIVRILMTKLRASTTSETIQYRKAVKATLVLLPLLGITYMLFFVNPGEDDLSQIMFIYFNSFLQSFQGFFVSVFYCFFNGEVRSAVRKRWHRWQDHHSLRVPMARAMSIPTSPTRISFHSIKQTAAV
T1 sequence (P24387 whole entry): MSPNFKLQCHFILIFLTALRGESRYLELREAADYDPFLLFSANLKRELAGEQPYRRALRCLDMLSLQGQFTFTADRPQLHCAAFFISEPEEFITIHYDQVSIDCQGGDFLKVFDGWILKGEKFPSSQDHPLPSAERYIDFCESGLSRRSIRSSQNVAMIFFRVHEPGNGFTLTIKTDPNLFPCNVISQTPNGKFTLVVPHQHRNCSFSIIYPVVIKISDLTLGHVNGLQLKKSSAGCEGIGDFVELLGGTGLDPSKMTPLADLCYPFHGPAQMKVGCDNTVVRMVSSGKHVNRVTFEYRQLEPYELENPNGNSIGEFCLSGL

INS1 = experiment: beta cell apoptosis inhibitors, cytokine rescue, dose response, luminescence, retest (AID 449756); type: functional, cell-based; details: Rattus norvegicus;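 further: cell death triggered by IL-1 beta plus TNF-alpha plus IFN-gamma mixture; protective hits raise ATP signal compared with cytokine alone wells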
[2] = Luminescence Cell-Based Dose Response HTS to Identify Activators of Luciferase Translation or Activity in H4 […] Cells. [Related pubchem assays: 1829 (Project Summary), 1814 (Primary HTS)]; type: functional
H4 = experiment: Luminescence Cell-Based Dose Response HTS to Identify Activators of 5'UTR Stem-Loop Driven Prion Protein mRNA Translation in H4 Neuroglioblastoma Cells. [Related pubchem assays: 1829 (Project Summary), 1814 (Primary HTS)]; type: functional; details: Homo sapiens
Cytochrome P450 2D6 = Cytochrome P450 2D6 (Homo sapiens, UniProt P10635);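 further: CYP2D6 member of a cytochrome P450 panel assay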
Sequence of Cytochrome P450 2D6 (P10635 whole entry): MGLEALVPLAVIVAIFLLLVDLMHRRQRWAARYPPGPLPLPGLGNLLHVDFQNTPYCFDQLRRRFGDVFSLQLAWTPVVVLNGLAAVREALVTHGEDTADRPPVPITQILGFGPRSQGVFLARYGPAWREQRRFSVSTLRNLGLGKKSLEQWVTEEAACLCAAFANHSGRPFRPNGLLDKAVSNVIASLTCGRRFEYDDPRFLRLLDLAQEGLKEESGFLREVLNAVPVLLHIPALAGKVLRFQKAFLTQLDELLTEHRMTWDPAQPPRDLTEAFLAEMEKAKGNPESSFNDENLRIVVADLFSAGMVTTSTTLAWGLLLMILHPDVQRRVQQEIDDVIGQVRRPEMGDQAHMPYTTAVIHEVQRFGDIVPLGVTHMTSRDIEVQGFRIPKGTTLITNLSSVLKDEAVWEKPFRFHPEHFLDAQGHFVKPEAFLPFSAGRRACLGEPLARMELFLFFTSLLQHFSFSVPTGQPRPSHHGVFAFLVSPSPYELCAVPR

[3] = inhibitors of intracellular T. cruzi replication, confirmation, NIH3T3 host cells, beta-gal luminescence (AID 2044); type: functional, cell-based;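 further: intracellular parasites grown in NIH/3T3 mouse fibroblasts as host cells; luminescent beta-galactosidase reporter signal from transgenic T. cruzi replicating inside host cells; inhibitors lower the luminescence signal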
[4] = cytotoxicity toward NIH3T3 fibroblasts, dose response, counter-screen, cell-based, ATP luminescence, mouse fibroblasts (AID 2010); type: functional;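 further: cells exposed to compound for about 90 hours before reading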
[5] = NIH-3T3 fibroblast cytotoxicity, dose response, cytotoxicity control, cell-based, fluorescence, Alamar Blue, secondary assay (AID 2327); type: functional;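 further: NIH-3T3 mouse fibroblasts cultured with fluconazole at 8 µg/mL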
Cytochrome P450 1A2 = molecular target: T2, Cytochrome P450 1A2 (Homo sapiens, UniProt P05177);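 further: PubChem cytochrome P450 panel assay, CYP1A2 panel member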
T2 sequence (P05177 whole entry): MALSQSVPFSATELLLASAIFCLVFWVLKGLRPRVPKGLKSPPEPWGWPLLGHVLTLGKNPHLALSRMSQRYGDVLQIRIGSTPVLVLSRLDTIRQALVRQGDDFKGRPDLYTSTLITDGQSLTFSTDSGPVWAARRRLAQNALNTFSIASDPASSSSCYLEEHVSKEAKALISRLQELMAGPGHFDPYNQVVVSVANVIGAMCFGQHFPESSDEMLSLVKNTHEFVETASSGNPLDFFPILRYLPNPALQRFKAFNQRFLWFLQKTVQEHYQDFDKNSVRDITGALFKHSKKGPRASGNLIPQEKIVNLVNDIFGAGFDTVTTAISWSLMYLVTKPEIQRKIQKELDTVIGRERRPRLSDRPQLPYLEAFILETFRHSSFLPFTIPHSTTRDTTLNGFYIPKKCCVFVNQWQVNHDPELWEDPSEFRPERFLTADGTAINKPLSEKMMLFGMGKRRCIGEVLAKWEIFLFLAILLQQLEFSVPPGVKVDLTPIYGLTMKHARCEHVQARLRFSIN

[6] = Luminescence Cell-Based Dose Retest to Confirm Inhibitors of Cancer Stem Cells. [Related pubchem assays (depositor defined):AID2717, AID2721]; type: functional; details: Homo sapiens

Sequence of Cytochrome P450 2C19 (P33261 whole entry): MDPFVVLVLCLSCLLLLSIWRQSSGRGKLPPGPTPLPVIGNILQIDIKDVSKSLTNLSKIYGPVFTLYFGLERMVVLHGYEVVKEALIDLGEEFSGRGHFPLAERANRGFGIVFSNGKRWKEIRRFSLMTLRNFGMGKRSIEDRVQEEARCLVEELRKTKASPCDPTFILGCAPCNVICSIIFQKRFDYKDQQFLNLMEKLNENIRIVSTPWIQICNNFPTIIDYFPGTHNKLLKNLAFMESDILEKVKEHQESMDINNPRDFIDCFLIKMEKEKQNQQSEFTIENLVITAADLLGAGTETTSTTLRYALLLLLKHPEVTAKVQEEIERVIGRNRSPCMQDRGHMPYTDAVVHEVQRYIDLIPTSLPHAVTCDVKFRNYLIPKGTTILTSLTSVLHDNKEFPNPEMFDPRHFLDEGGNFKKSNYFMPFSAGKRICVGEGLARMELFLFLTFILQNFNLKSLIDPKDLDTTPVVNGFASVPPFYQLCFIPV

Compound: CSc1nnc(-c2cc3c(-c4ccccc4)nn(C)c3s2)n1C
- AC50 (Cytochrome P450 2C19): 22.4 µM (inconclusive)
- AC50 (Cytochrome P450 3A4): 31.6 µM (inconclusive)
- AC50 (Cytochrome P450 2C9): 3.55 µM (inconclusive)

Compound: COCCCNC(=O)[C@H]1N2C(=O)c3ccccc3C2SC1(C)C (some centres not stated)
- EC50 [1]: > 53 µM (inactive)

Compound: CCOC(=O)c1sc(SC)c2c1CCC/C2=N/OC
- AC50 (INS1): > 260 µM (inactive)

Compound: Cn1c(=O)c(-c2ccccc2)nc2cnc(OCc3ccccc3)nc21
- AC50 (Cytochrome P450 2C19): 39.8 µM (inconclusive)
- AC50 (Cytochrome P450 3A4): 39.8 µM (inconclusive)
- AC50 (Cytochrome P450 2C9): 20 µM (inconclusive)

Compound: O=C(CSc1cn(Cc2ccccc2)c2ccccc12)Nc1nccs1
- EC50 [2]: 0.244 µM (active)
- EC50 (H4): 5.48 µM (active)

Compound: O=C1CC[C@](CCc2nc3ccccc3[nH]2)(c2ccccc2)C(=O)N1
- AC50 (Cytochrome P450 2D6): 2.51 µM (inconclusive)

Compound: COc1ccc(C(=O)N2CCC3(CCCN(Cc4ccncc4)C3)CC2)cc1
- AC50 (Cytochrome P450 2D6): 12.6 µM (inconclusive)

Compound: COc1ccc(NC(=O)C2(c3ccc(NC(=O)c4ccc(OC(C)=O)cc4)cc3)CCCC2)cc1
- AC50 (Cytochrome P450 2C9): 1.26 µM (inconclusive)

Compound: N#Cc1c(-c2ccc(F)cc2)cc(C2CC2)nc1SCC(=O)c1cccs1
- EC50 [1]: > 53 µM (inactive)

Compound: CC(C)N1CCN(c2ccncc2S(=O)(=O)N2CCCCC2)CC1
- AC50 (Cytochrome P450 2D6): 3.98 µM (inconclusive)

Compound: COc1ccc2[nH]c(/C(C#N)=C\c3ccc(Oc4ccc([N+](=O)[O-])cn4)cc3)nc2c1
- AC50 (INS1): 3.64 µM (active)

Compound: COc1ccc(C(=O)C/C(=C\C(=O)c2ccc(C)cc2)c2ccccc2)cc1
- EC50 [3]: 1.93 µM (active)
- EC50 [4]: > 60 µM (not active)
- AC50 (INS1): 7 µM (active)

Compound: CC(=O)N1CCC2(CC1)CCN(c1ccncc1)CC2
- AC50 (Cytochrome P450 2C9): 25.1 µM (inconclusive)

Compound: COc1cccc([C@H]2Oc3ccc(OC)cc3/C(=N\OC[C@@H](O)[C@@H]3O[C@@H]4OC(C)(C)O[C@@H]4[C@H]3O)[C@@H]2O)c1
- AC50 (Cytochrome P450 2D6): 3.16 µM (inconclusive)

Compound: COc1ccc(-c2cc(-c3c(O)c(OC)c4occc4c3OC)[nH]n2)cc1
- EC50 [5]: 25.8 µM (active)

Compound: CC(=O)Nc1ccc(C2=NN(CC#N)C(=O)SC2)cc1
- AC50 (Cytochrome P450 1A2): 15.8 µM (inconclusive)
- AC50 (Cytochrome P450 2C9): 8.91 µM (inconclusive)

Compound: CC(=O)c1ccc(NC(S)=NCCc2cccc(Cl)c2)cc1
- EC50 [2]: 2.64 µM (active)
- EC50 (H4): > 120 µM (not active)

Compound: CC(=O)Nc1ccc(Sc2ncccc2C(=O)Nc2ccc(F)cc2)cn1
- AC50 (Cytochrome P450 2C19): 39.8 µM (inconclusive)
- EC50 [1]: 1.97 µM (active)
- AC50 (Cytochrome P450 3A4): 15.8 µM (inconclusive)
- AC50 (Cytochrome P450 2C9): 10 µM (inconclusive)

Compound: COc1ccc(Oc2nnc(C)c3ccccc23)cc1
- EC50 [2]: 2.76 µM (active)
- EC50 (H4): 5.97 µM (active)

Compound: CCN(CC)CCOC(=O)c1c(C)n(C)c2ccc(OC)cc12
- AC50 (Cytochrome P450 2C19): 39.8 µM (inconclusive)
- AC50 (Cytochrome P450 2D6): 28.2 µM (inconclusive)

Compound: Cc1cccc(NC(=O)C2CCN(S(=O)(=O)c3cccc4nsnc34)CC2)n1
- AC50 (Cytochrome P450 2D6): 14.1 µM (inconclusive)
- AC50 (Cytochrome P450 1A2): 0.0794 µM (inconclusive)
- AC50 (Cytochrome P450 2C9): 14.1 µM (inconclusive)

Compound: Cc1cccc(NC(=N)Nc2nc(C)cc(C)n2)c1
- EC50 [1]: 10.7 µM (active)

Compound: Cc1cccc(CNc2nc(-c3cccc(NS(C)(=O)=O)c3)nc3ccccc23)c1
- AC50 (Cytochrome P450 2C9): 0.501 µM (inconclusive)

Compound: CC1=NN(C(=O)c2ccncc2)C(=O)[C@@H]1/N=N\c1ccc2ccccc2c1
- AC50 (Cytochrome P450 2C19): 3.98 µM (inconclusive)
- AC50 (Cytochrome P450 2D6): 3.16 µM (inconclusive)
- AC50 (Cytochrome P450 3A4): 3.98 µM (inconclusive)

Compound: Cc1ccc(Nc2nnc(-c3ccc4c(c3)OCO4)o2)c(C)c1
- AC50 (Cytochrome P450 2C9): 7.94 µM (inconclusive)

Compound: CC(C)(C)c1ccc(C(=O)Nc2ccc(N3CCOCC3)cc2)cc1
- AC50 [6]: 4.04 µM (active)

Compound: Cn1c2c(c(=O)n(C)c1=O)C1(C(=O)Nc3ccccc31)C(C#N)=C(N)O2 (configuration not stated)
- AC50 (Cytochrome P450 2D6): 14.1 µM (inconclusive)
- AC50 (Cytochrome P450 1A2): 25.1 µM (inconclusive)
- AC50 (Cytochrome P450 3A4): 22.4 µM (inconclusive)

Compound: FC(F)(F)c1ccccc1-c1nc(N2CCOCC2)c2ccccc2n1
- AC50 (Cytochrome P450 2D6): 25.1 µM (inconclusive)
- AC50 (Cytochrome P450 3A4): 12.6 µM (inconclusive)

Compound: COc1ccc(N2CCN(C(S)=Nc3cccc(C)c3)CC2)cc1
- AC50 (Cytochrome P450 3A4): 2.24 µM (inconclusive)
- AC50 (Cytochrome P450 2C9): 0.00562 µM (inconclusive)

Compound: O=C(CNS(=O)(=O)c1cccs1)N1CCC2(CC1)OCCO2
- AC50 (Cytochrome P450 2C9): 39.8 µM (inconclusive)

Compound: O=C(OCc1cccc(F)c1)c1ccc2c(c1)-c1ccccc1C2=O
- AC50 (Cytochrome P450 2D6): 0.355 µM (inconclusive)
- AC50 (Cytochrome P450 2C9): 10 µM (inconclusive)

Compound: O=C(c1ccncc1)N1CCC2(CCN(Cc3ccncc3)CC2)CC1
- AC50 (Cytochrome P450 2D6): 25.1 µM (inconclusive)
- AC50 (Cytochrome P450 3A4): 15.8 µM (inconclusive)
- AC50 (Cytochrome P450 2C9): 20 µM (inconclusive)

Compound: CCC(=O)NCCNC(=O)c1c(SC)nsc1SC
- AC50 (Cytochrome P450 2C19): 39.8 µM (inconclusive)
- AC50 (Cytochrome P450 1A2): 3.16 µM (inconclusive)
- AC50 (Cytochrome P450 2C9): 12.6 µM (inconclusive)

Compound: Cc1ccnc(N(C(=O)Nc2ccccc2)C2=NCC(C)(C)S2)c1
- EC50 [2]: 0.709 µM (active)
- EC50 (H4): > 120 µM (not active)

Compound: COC(=O)C1(CC(C)C)C=C2C(=C(C(C)C)C(=O)C2C)CN1 (configuration not stated)
- AC50 (Cytochrome P450 2C19): 25.1 µM (inconclusive)
- AC50 (Cytochrome P450 2D6): 25.1 µM (inconclusive)
- AC50 (Cytochrome P450 1A2): 15.8 µM (inconclusive)
- AC50 (Cytochrome P450 3A4): 20 µM (inconclusive)

Compound: O=C(NCc1ccccc1)C1=C[C@H](c2csc3ccccc23)C[C@H](OCCCCO)O1
- AC50 (INS1): 5.81 µM (active)

Compound: COc1ccc(O[C@H]2C=C[C@@H](c3ccccc3)O[C@H]2COC(=O)CC/C(C)=N\O[C@@H](C)CN2CCCc3nc(C)c(C)cc32)cc1
- AC50 (Cytochrome P450 2C9): 3.98 µM (inconclusive)

Compound: O=c1c(Oc2ccccc2Br)c(C(F)(F)F)oc2c(CN3CCCC3)c(O)ccc12
- AC50 (Cytochrome P450 2C19): 39.8 µM (inconclusive)
- AC50 (Cytochrome P450 2D6): 17.8 µM (inconclusive)
- AC50 (Cytochrome P450 1A2): 17.8 µM (inconclusive)

Compound: COc1ccc([N+](=O)[O-])cc1NC1C2CC3CC(C2)CC1C3 (configuration not stated)
- AC50 (Cytochrome P450 3A4): 11.2 µM (inconclusive)
- AC50 (Cytochrome P450 2C9): 22.4 µM (inconclusive)

Compound: Cc1ccc(S(=O)(=O)N/N=C/c2ccc(OC3CSC3)cc2)cc1
- AC50 (Cytochrome P450 2C19): 4.47 µM (inconclusive)
- EC50 [1]: 5.51 µM (active)

Compound: CSc1nc(C)cc(OCC(=O)N/N=C/c2ccccc2O)n1
- AC50 [6]: 3.38 µM (active)

Compound: O=C(O)c1ccc2c(c1)C(=O)N(C(Cc1ccc(O)cc1)C(=O)O)C2=O (configuration not stated)
- AC50 (Cytochrome P450 2D6): 0.01 µM (inconclusive)
